The results in this text go back to patent US20260355274A1 (Onkure, Inc., priority 2022, published 2026).

Type in all cases: biochemical
Assay [1] deals with HDAC 6 (Homo sapiens, UniProt Q9UBN7). In words: enzymatic inhibition of HDAC 6. As to conditions: HDAC 6, Class IIb; read-out: IC50. From the text:
(§1) The mammalian HDACs can be divided into four classes depending on their sequence homology, sub-cellular distribution and catalytic activity. Class I, Il and IV HDACs have a Zn^2+ cofactor in the catalytic site. Class III HDACs contain sirtuins 1-7 and are NAD^+-dependent. Class I (HDACs 1, 2, 3 and 8) share the same homology as Rpd3 and are preliminarily distributed in the nucleus of normal cells. Class II HDACs can be subdivided into class IIa HDACs and class Ilb HDACs. Class IIa enzymes (HDAC 4, 5, 7 and 9) shuttle between the nucleus and cytoplasm and are located in specific tissues such as the brain, heart, and muscle. Class IIb (HDACs 6 and 10) are chiefly located in the cytoplasm.

Assay [2] concerns the target HDAC 9 (Homo sapiens, UniProt Q9UKV0). In words: enzymatic inhibition of HDAC 9. As to conditions: HDAC 9, Class IIa; read-out: IC50.
Text: as §1

Assay [3] deals with HDAC 8 (Homo sapiens, UniProt Q9BY41). In words: enzymatic inhibition of HDAC 8. To be noted: HDAC 8, Class I; read-out: IC50.
Text: as §1

Assay [4] deals with HDAC 11 (Homo sapiens, UniProt Q96DB2). Put plainly: enzymatic inhibition of HDAC 11. As to conditions: HDAC 11, Class IV.
Text: as §1

Assay [5] concerns the target HDAC 5 (Homo sapiens, UniProt Q9UQL6). Put plainly: enzymatic inhibition of HDAC 5. To be noted: HDAC 5, Class IIa; read-out: IC50.
Text: as §1

The target of assay [6] is HDAC 3 (Homo sapiens, UniProt O15379). In words: enzymatic inhibition of HDAC 3. As to conditions: HDAC 3, Class I.
Text: as §1

For assay [7], the system named is Class I HDAC. In words: enzymatic inhibition of Class I HDACs (summary). To be noted: in words.
Text: as §1

In assay [8] the target is HDAC 2 (Homo sapiens, UniProt Q92769). Put plainly: enzymatic inhibition of HDAC 2. To be noted: HDAC 2, Class I.
Text: as §1

Assay [9] has as its target HDAC 1 (Homo sapiens, UniProt Q13547). Put plainly: enzymatic inhibition of HDAC 1. To be noted: HDAC 1, Class I.
Text: as §1

Assay [10] deals with HDAC 4 (Homo sapiens, UniProt P56524). In words: enzymatic inhibition of HDAC 4. To be noted: HDAC 4, Class IIa; read-out: IC50.
Text: as §1

For assay [11], the target named is HDAC 10 (Homo sapiens, UniProt Q969S8). In words: enzymatic inhibition of HDAC 10. To be noted: HDAC 10, Class IIb.
Text: as §1

The target of assay [12] is HDAC 7 (Homo sapiens, UniProt Q8WUI4). In words: enzymatic inhibition of HDAC 7. As to conditions: HDAC 7, Class IIa; read-out: IC50.
Text: as §1

Chain of HDAC 5 (Q9UQL6 whole entry): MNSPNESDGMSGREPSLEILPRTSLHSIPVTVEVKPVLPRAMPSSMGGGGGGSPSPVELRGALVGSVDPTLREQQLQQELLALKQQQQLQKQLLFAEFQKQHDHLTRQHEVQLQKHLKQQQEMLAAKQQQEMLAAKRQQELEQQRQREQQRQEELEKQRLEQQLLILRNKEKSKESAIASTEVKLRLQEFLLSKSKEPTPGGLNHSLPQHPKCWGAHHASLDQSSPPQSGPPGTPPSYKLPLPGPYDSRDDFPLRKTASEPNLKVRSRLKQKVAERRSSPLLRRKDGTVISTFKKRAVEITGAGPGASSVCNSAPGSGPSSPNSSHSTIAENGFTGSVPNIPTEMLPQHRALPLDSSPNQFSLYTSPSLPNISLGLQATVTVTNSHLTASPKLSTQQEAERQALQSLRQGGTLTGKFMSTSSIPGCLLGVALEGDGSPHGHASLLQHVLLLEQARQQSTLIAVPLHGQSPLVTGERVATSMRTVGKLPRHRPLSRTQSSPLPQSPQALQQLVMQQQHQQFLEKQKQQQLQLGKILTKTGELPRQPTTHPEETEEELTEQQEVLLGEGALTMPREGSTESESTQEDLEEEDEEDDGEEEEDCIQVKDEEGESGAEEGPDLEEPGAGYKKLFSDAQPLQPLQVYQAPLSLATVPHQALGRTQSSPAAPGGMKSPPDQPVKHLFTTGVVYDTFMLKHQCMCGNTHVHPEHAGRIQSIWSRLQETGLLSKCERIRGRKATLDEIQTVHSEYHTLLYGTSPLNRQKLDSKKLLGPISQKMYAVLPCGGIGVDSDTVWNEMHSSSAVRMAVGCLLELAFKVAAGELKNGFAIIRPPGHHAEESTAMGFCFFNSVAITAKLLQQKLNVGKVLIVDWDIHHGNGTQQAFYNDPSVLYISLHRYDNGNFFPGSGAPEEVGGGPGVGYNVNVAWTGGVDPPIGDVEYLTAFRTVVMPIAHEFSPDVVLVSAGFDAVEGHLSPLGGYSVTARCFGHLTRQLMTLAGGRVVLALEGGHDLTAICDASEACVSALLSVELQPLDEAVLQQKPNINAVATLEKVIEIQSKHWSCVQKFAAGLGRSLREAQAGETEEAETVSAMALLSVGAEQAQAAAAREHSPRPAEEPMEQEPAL
Chain of HDAC 8 (Q9BY41 whole entry): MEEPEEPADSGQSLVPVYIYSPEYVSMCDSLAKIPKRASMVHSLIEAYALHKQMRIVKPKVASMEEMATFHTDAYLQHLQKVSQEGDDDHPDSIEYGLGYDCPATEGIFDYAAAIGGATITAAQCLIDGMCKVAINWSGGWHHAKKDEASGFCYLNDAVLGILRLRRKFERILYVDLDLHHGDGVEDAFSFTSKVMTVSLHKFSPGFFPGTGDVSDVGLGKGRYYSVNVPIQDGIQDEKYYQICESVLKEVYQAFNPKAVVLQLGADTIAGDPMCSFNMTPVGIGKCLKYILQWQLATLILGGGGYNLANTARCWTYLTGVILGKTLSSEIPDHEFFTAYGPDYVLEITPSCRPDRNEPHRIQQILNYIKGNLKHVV
Chain of HDAC 1 (Q13547 whole entry): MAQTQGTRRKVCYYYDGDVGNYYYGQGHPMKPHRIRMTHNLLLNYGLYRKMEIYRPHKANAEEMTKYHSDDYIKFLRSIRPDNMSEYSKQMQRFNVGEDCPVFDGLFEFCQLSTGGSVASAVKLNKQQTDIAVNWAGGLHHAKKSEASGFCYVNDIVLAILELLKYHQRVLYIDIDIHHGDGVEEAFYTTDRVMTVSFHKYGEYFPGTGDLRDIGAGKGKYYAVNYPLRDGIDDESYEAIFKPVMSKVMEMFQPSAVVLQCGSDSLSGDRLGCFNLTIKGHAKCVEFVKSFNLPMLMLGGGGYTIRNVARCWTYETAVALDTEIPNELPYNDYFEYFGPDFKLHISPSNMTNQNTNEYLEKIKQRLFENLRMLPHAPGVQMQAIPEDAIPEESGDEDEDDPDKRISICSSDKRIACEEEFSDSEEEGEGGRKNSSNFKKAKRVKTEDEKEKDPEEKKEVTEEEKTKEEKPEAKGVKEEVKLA
Chain of HDAC 6 (Q9UBN7 whole entry): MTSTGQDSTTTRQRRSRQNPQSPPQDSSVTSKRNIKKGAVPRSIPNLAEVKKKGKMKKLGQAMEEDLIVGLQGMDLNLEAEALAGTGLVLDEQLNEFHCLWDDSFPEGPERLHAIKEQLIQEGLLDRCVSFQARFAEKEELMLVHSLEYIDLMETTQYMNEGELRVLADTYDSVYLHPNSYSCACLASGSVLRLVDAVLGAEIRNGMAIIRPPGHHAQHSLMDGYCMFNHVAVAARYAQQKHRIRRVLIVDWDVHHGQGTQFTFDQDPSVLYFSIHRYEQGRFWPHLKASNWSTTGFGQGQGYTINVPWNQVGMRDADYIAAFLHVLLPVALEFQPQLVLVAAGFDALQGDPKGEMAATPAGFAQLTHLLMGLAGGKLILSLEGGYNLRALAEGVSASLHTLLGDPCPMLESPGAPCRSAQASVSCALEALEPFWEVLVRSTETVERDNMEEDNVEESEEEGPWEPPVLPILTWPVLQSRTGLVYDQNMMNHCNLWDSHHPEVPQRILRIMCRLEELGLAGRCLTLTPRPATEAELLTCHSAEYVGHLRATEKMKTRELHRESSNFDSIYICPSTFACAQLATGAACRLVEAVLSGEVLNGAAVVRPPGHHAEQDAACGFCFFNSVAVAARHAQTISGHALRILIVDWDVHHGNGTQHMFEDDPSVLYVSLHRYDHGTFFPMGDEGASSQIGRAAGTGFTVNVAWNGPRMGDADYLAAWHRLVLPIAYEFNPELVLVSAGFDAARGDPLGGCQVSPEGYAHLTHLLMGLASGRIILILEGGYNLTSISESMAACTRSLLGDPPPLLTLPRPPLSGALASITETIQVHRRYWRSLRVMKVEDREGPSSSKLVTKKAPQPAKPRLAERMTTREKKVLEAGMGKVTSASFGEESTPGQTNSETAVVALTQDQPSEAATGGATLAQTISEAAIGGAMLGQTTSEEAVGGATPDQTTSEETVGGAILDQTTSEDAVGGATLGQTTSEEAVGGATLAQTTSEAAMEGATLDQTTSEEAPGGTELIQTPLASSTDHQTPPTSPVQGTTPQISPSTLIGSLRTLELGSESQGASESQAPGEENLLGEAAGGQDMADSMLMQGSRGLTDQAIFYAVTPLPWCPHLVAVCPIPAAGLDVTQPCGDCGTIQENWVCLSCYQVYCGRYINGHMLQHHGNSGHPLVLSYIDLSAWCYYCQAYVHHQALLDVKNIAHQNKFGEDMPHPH
Chain of HDAC 10 (Q969S8 whole entry): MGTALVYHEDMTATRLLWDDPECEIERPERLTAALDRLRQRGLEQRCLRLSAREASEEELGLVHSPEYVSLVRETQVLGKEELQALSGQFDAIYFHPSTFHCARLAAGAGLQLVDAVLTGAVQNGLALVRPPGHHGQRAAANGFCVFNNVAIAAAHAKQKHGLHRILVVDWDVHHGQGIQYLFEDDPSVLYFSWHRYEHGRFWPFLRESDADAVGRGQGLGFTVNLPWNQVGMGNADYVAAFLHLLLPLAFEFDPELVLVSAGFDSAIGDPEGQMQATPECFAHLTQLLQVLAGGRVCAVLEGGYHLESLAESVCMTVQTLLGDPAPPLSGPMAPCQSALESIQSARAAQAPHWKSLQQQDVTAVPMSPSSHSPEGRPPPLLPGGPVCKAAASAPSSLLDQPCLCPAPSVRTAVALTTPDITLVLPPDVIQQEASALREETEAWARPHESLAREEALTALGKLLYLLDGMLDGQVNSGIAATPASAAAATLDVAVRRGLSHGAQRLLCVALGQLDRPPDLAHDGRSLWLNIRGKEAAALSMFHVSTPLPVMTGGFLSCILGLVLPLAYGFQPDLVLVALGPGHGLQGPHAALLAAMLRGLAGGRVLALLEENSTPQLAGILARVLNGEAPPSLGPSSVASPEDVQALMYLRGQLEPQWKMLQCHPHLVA
Chain of HDAC 2 (Q92769 whole entry): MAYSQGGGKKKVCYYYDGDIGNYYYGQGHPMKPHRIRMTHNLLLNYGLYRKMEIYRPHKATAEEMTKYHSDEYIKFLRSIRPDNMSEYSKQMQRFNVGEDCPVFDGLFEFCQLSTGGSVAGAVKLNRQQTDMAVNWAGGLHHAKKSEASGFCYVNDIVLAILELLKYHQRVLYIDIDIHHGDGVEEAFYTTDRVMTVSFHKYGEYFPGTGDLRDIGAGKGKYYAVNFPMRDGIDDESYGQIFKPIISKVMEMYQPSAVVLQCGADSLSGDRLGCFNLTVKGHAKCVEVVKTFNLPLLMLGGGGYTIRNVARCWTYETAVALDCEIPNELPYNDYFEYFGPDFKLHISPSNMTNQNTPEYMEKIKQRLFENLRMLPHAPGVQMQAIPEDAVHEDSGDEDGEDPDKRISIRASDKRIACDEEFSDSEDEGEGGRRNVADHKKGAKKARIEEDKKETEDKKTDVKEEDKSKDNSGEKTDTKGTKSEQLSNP
Chain of HDAC 11 (Q96DB2 whole entry): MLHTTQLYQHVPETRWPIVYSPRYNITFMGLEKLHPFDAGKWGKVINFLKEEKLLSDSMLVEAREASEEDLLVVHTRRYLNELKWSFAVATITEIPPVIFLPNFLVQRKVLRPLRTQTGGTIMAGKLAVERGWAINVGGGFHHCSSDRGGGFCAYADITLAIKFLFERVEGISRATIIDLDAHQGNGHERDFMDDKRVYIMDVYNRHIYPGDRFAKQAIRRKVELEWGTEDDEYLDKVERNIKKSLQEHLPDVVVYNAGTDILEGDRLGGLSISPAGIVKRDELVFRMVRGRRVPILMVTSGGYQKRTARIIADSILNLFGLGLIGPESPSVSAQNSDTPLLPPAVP

For `CC(C)[C@@H]1NC(=O)C(C)(C)NC(=O)c2csc(n2)CNC(=O)C[C@@H](/C=C/CCS)OC1=O` [OKI-006], the IC50 in assay [1] was 47 nM; in assay [2] it was above 1000 nM; in assay [3], 49 nM; in assay [4], 2.3 nM; in [5] it was above 1000 nM; in assay [6], 2 nM. The IC50 is 2.4 nM in assay [8]; 1.2 nM in [9]; above 1000 nM in assay [10]; 2.8 nM in assay [11]; above 1000 nM in assay [12]. The “potency / selectivity for Class I HDAC” value in assay [7] is given as “high potency for Class I HDAC inhibitors”.

As a reminder, the IC50 is the concentration that inhibits the measured activity by half.
